Activity, viability and inhibition data for two compounds are collected here from ChEMBL document CHEMBL5257089, “Gamabufotalin Induces Apoptosis and Cytoprotective Autophagy through the mTOR Signaling Pathway in Hepatocellular Carcinoma” (J Nat Prod, 2023).

Data set [1] concerns Huh-7. In words: Induction of autophagic flux in human Huh-7 cells assessed as increase in number of autophagic vesicles at 10 nM by transmission electron microscopic analysis. The format is functional, cell-based.
Data set [2] concerns Huh-7. In words: Induction of apoptosis in human Huh-7 cells assessed as viable cells at 10 nM incubated for 48 hrs by Annexin V-FITC/PI staining based flow cytometry method (reference value: 91.5%). Conditions: read-out: Activity. The format is functional. (In general: In flow cytometry, cells or beads pass a laser one at a time.)
The subject of data set [3] is Huh-7. In words: Induction of apoptosis in human Huh-7 cells assessed as increase in bax level at 10 nM incubated for 48 hrs in presence of gamabufotalin by immunoblot analysis. The format is functional, cell-based.
In data set [4] the test system is Hep 3B2. In words: Inhibition of colony formation in human Hep3B cells at upto 25 uM incubated for 48 hrs by crystal violet staining based analysis. The format is functional, cell-based.
Data set [5] has as its system Huh-7. In words: Inhibition of colony formation in human Huh-7 cells at upto 25 uM incubated for 48 hrs by crystal violet staining based analysis. The format is functional, cell-based.
Data set [6] has as its system Hep 3B2. Nature of the data set: Induction of apoptosis in human Hep3B cells assessed as viable cells at 20 nM incubated for 48 hrs by Annexin V-FITC/PI staining based flow cytometry method (reference value: 93.3%). In kind it is functional. As to conditions: read-out: Activity.
The test system of data set [7] is Hep 3B2. Nature of the data set: Induction of apoptosis in human Hep3B cells assessed as late apoptotic cells at 15 nM incubated for 48 hrs by Annexin V-FITC/PI staining based flow cytometry method (reference value: 2.6%). The format is functional.
Data set [8] concerns Hep 3B2. Nature of the data set: Induction of apoptosis in human Hep3B cells assessed as late apoptotic cells at 25 nM incubated for 48 hrs by Annexin V-FITC/PI staining based flow cytometry method (reference value: 2.6%). In kind it is functional.
Data set [9] concerns Hep 3B2. Nature of the data set: Induction of apoptosis in human Hep3B cells assessed as necrotic cells at 15 nM incubated for 48 hrs by Annexin V-FITC/PI staining based flow cytometry method (reference value: 0.2%). In kind it is functional.
The test system of data set [10] is Hep 3B2. In words: Induction of apoptosis in human Hep3B cells assessed as necrotic cells at 25 nM incubated for 48 hrs by Annexin V-FITC/PI staining based flow cytometry method (reference value: 0.2%). In kind it is functional.
Data set [11] has as its system Huh-7. In words: Induction of apoptosis in human Huh-7 cells assessed as early apoptotic cells at 20 nM incubated for 48 hrs by Annexin V-FITC/PI staining based flow cytometry method (reference value: 1.7%). The format is functional.
Data set [12] has as its system Huh-7. In words: Induction of apoptosis in human Huh-7 cells assessed as late apoptotic cells at 15 nM incubated for 48 hrs by Annexin V-FITC/PI staining based flow cytometry method (reference value: 2.2%). The format is functional.
Data set [13] has as its system Hep 3B2. Nature of the data set: Induction of apoptosis in human Hep3B cells assessed as increase in caspase-3 expression at upto 25 nM incubated for 48 hrs by Western blot analysis. In kind it is functional, cell-based.
In data set [14] the test system is Hep 3B2. In words: Induction of apoptosis in human Hep3B cells assessed as early apoptotic cells at 25 nM measured after 48 hrs in presence of Z-VAD-FMK by annexin V-FITC/Propidium iodide staining based flow cytometric analysis (reference value: 1.6%). In kind it is functional.
Data set [15] has as its system Huh-7. Nature of the data set: Induction of apoptosis in human Huh-7 cells assessed as early apoptotic cells at 25 nM measured after 48 hrs by annexin V-FITC/Propidium iodide staining based flow cytometric analysis (reference value: 2.2%). The format is functional.
Data set [16] has as its system Huh-7. Nature of the data set: Induction of apoptosis in human Huh-7 cells assessed as necrotic cells at 25 nM measured after 48 hrs by annexin V-FITC/Propidium iodide staining based flow cytometric analysis (reference value: 0.0%). In kind it is functional.
Data set [17] has as its system Huh-7. Nature of the data set: Induction of apoptosis in human Huh-7 cells assessed as necrotic cells at 25 nM measured after 48 hrs in presence of z-VAD-FMK by annexin V-FITC/Propidium iodide staining based flow cytometric analysis (reference value: 0.0%). The format is functional.
In data set [18] the test system is Hep 3B2. In words: Induction of autophagic flux in human Hep3B cells assessed as increase in high electron density vesicles at 25 nM incubated for 48 hrs by transmission electron microscopic analysis. The format is functional, cell-based.
Data set [19] has as its system Huh-7. Nature of the data set: Induction of autophagic flux in human Huh-7 cells assessed as increase in high electron density vesicles at 25 nM incubated for 48 hrs by transmission electron microscopic analysis. In kind it is functional, cell-based.
Data set [20] concerns Hep 3B2. Nature of the data set: Induction of autophagic flux in human Hep3B cells assessed as increase in LC3-II expression at upto 25 nM incubated for 48 hrs by Western blot analysis. In kind it is functional, cell-based. A general note: A western blot detects proteins with antibodies after separation by electrophoresis.
In data set [21] the test system is Hep 3B2. Nature of the data set: Induction of autophagic flux in human Hep3B cells assessed as increase in LC3-I expression at upto 25 nM incubated for 48 hrs by Western blot analysis. In kind it is functional, cell-based.
Data set [22] deals with Hep 3B2. In words: Induction of autophagic flux in human Hep3B cells assessed as rescue of p62 at 25 uM incubated for 48 hrs in presence of chloroquine by Western blot analysis. The format is functional, cell-based.
In data set [23] the test system is Huh-7. Nature of the data set: Induction of autophagic flux in human Huh-7 cells assessed as rescue of p62 at 25 uM incubated for 48 hrs in presence of chloroquine by Western blot analysis. The format is functional, cell-based.
Data set [24] has as its system Huh-7. Nature of the data set: Induction of apoptosis in human Huh-7 cells assessed as early apoptotic cells at 25 nM incubated for 48 hrs by Annexin V-FITC/PI staining based flow cytometry method (reference value: 2.8%). The format is functional.
Data set [25] has as its system Hep 3B2. Nature of the data set: Induction of apoptosis in human Hep3B cells assessed as increase in caspase-3 level at 25 nM incubated for 48 hrs in presence of chloroquine by immunoblot analysis. In kind it is functional, cell-based.
In data set [26] the test system is Hep 3B2. Nature of the data set: Induction of apoptosis in human Hep3B cells assessed as late apoptotic cells at 25 nM incubated for 48 hrs in presence of 4,6-dimorpholino-N-(4-nitrophenyl)-1,3,5-triazin-2-amine by Annexin V-FITC/PI staining based flow cytometry method (reference value: 2.2%). In kind it is functional.
Data set [27] concerns Huh-7. Nature of the data set: Induction of apoptosis in human Huh-7 cells assessed as necrotic cells at 25 nM incubated for 48 hrs by Annexin V-FITC/PI staining based flow cytometry method (reference value: 1.9%). In kind it is functional.
Data set [28] has as its system Hep 3B2. Nature of the data set: Induction of apoptosis in human Hep3B cells assessed as reduction in bcl-2 level […] incubated for 48 hrs in presence of 4,6-dimorpholino-N-(4-nitrophenyl)-1,3,5-triazin-2-amine by immunoblot analysis. In kind it is functional, cell-based.
Data set [29] has as its system Hep 3B2. In words: Induction of autophagy in human Hep3B cells harbouring mCherry-egfp-LC3 assessed as reduction in yellow puncta ratio at 25 nM incubated for 15 mins in presence of 4,6-dimorpholino-N-(4-nitrophenyl)-1,3,5-triazin-2-amine by laser scanning confocal microscopic analysis. The format is functional, cell-based.
In data set [30] the test system is Hep 3B2. In words: Induction of autophagy in human Hep3B cells assessed as restoration of ULK1 phosphorylation expression at 25 uM incubated for 48 hrs in presence of 4,6-dimorpholino-N-(4-nitrophenyl)-1,3,5-triazin-2-amine by immunoblot analysis. The format is functional, cell-based.
Data set [31] has as its system Huh-7. Nature of the data set: Induction of autophagy in human Huh-7 cells assessed as downregulation of LC3II/LC3I ratio at 25 uM incubated for 48 hrs in presence of 4,6-dimorpholino-N-(4-nitrophenyl)-1,3,5-triazin-2-amine by immunoblot analysis. In kind it is functional, cell-based.
Data set [32] concerns Hep 3B2. Nature of the data set: Induction of autophagic flux in human Hep3B cells harbouring mCherry-egfp-LC3 assessed as reduction in number of red puncta ratio at 25 nM incubated for 15 mins in presence of chloroquine by laser scanning confocal microscopic analysis. The format is functional, cell-based.
The nature of data set [33]: Toxicity in mouse assessed as effect on kidney at 5 mg/kg,ip administered every second day for 3 weeks by H and E staining based microscopic method. The format is organism-based. As to conditions: in vivo, 504 h.

Each structure is given as a SMILES string. Calls of active or inactive are those of the source. No cut-off for these calls is given here.

For the compound `CCN(CC)CCCC(C)Nc1ccnc2cc(Cl)ccc12` (stereo not drawn) [CHLOROQUINE], the result in the data set with Huh-7 [1] and in the data set with Huh-7 [3] was Active. In addition, the viability at 0.01 µM with Huh-7 [2] came out at 90.3%.
Take `C[C@]12CC[C@H](O)C[C@H]1CC[C@@H]1[C@@H]2[C@H](O)C[C@]2(C)[C@@H](c3ccc(=O)oc3)CC[C@]12O` [GAMABUFOTALIN]: the inhibition result with Hep 3B2 [4] and with Huh-7 [5] was “Active” throughout. Besides, the viability at 0.02 µM with Hep 3B2 [6] turned out to be 88.7%. For the same compound, the Activity in the data set on Hep 3B2 [7] was 4.5%; in the data set with Hep 3B2 [8], 5.2%; in the data set with Hep 3B2 [9], 0.5%; in the data set on Hep 3B2 [10], 0.6%; in the data set with Huh-7 [11], 5.5%; in the data set with Huh-7 [12], 24.4%. The Activity in the data set on Hep 3B2 [14] was 4.4%; with Huh-7 [15], 6.6%; with Huh-7 [16], 1.2%; in the data set with Huh-7 [17], 0.3%; with Huh-7 [24], 8.7%; in the data set on Hep 3B2 [26], 20.2%. The Activity in the data set on Huh-7 [27] was 2.1%; in data set [33] it was “Non-Toxic”. The outcome with Hep 3B2 [13], with Hep 3B2 [18], in the data set with Huh-7 [19], in the data set on Hep 3B2 [20], in the data set on Hep 3B2 [21] and in the data set on Hep 3B2 [22] was Active. The outcome in the data set on Huh-7 [23], in the data set on Hep 3B2 [25], in the data set with Hep 3B2 [28], with Hep 3B2 [29], with Hep 3B2 [30] and in the data set on Huh-7 [31] was Active. For the same compound, the outcome in the data set with Hep 3B2 [32] was Active.
